For one assay, the target named is T1, MelBSt (Salmonella typhimurium, UniProt P30878).
T1 construct: made in house; host or cells: E. coli DW2, right-side-out membrane vesicles
Put plainly: Trp to D2G FRET reversal by melibiose, functional state of solubilized MelBSt. The format is biochemical. The conditions noted are these: 1.0% by weight, solubilized at 23° C. for 30 minutes. How it is done:
So as to investigate functional states of MelB proteins dissolved by amphipathic molecules, Førster resonance energy transfer (FRET) to 2′-(N-dansyl)aminoalkyl-1-thio-β-D-galactopyranoside (D^2G), as a fluorescence ligand, was measured in tryptophan (Trp). […] However, if a protein dissolved by an amphipathic molecule has activity, melibiose substitutes for the coupled D^2G molecule upon addition of the melibiose and thus energy transfer no longer occurs, thereby decreasing fluorescence intensity. Accordingly, the activity of the MelB protein dissolved in DDM or NDT-C11 can be determined by whether reversal of D^2G FRET occurs due to melibiose in Trp. Therefore, the FRET measurement method is an efficient method to measure the membrane protein structural stabilization ability of an amphipathic molecule.
In particular, a right-side-out (RSO) membrane vesicle was prepared by osmotic lysis of an E. coli DW2 cell containing MelBSt or MelBEc and re-suspended with 100 mM KPi (pH 7.5), followed by storing at −80° C. D^2G was provided by H. Ronald Kaback and Gerard Leblanc. A protein concentration of an RSO membrane vesicle in 100 mM KPi, pH 7.5, and 50 mM NaCl was 1 mg/ml concentration. […] An emission wavelength of MelBEc was measured at 465 nm and an emission wavelength of MelBSt was measured at 490 nm. […] Accordingly, fluorescence intensity is decreased. […]

In the next assay the target is LeuT E192C^TMR (Aquifex aeolicus, UniProt O67854, E192C). Put plainly: Site-directed fluorescence (iodide) quenching of LeuT E192C-TMR, Stern-Volmer analysis. The format is biochemical. The settings on record: for Δ KSV: leucine-induced change of iodide accessibility of TMR, CMC+0.04% by weight detergent, means [s.e.m. interval]; for Ksv when leucine is absent: no leucine, LeuT E192C-TMR in CMC+0.04% by weight detergent. An excerpt: A principle of this experiment is as follows: A cysteine residue was inserted into a 192th LeuT site (E192C), followed by coupling with a thiol-reactive fluorophore (tetramethylrhodamine-5-maleimide, TMR). The prepared LeuT E192C^TMR, as TMR-coupled LeuT, is an excellent system to sensitively monitor protein structure change in response to ligand coupling. […] Due to such change, TMR fluorescence molecules exposed to an aqueous solution become closer to iodide (I^−), as a quencher dissolved in water, whereby strong fluorescence quenching is caused. TMR quenching intensity by leucine coupling may be represented by Stern-Volmer plotting and thus structural flexibility of a protein may be directly measured. Ligand bindability of the TMR-labeled transporter was measured using SPA while increasing the amount of [^3H]leucine.
In particular, structure, expression, purification, and fluorescence labeling were performed according to the following methods. In accordance with a method disclosed in a paper published by C. B. Billesbolle, et al. (J. Biol. Chem. 2015, 290, 26725-26738), a leucine transporter mutant (LeuT E192C^TMR) was produced and purification and labeling were carried out. In summary, a residue of the E192 was mutated with cysteine using QuikChange (Agilent Technologies) such that fluorescence coupling was accomplished by maleimide labeling. The LeuT mutant was expressed in E. coli C41 (DE3). A membrane of DE3 was disrupted and LeuT was solubilized with 1% (w/v) DDM. Subsequently, LeuT solubilized with the amphipathic molecule was fixed to a Chelating Sepharose Fast Flow resin (GE Healthcare, Little Chalfont, UK), followed by washing with tetramethylrhodamine-5-maleimide (TMR, Life Technologies, Carlsbad, Calif., USA) at 4° C. for 16 hours. Subsequently, LeuT was eluted with a buffer containing 300 mM imidazole, 20 mM Tris-HCl (pH 8.0), 1 mM NaCl, 199 mM KCl, and 0.05% DDM.
Fluorescence spectroscopy was carried out according to the following method. A fluorescence-based experiment was carried out by diluting 0.5 μg ml^−1 of fluorescence-labeled LeuT with buffer A supplemented with CMC+0.04% by weight of DDM, MNG-3 or NDT-C11. Leucine was separately added to specimen aliquots of LeuT for each concentration and incubated for one hour in a room temperature shaker. Steady-state fluorescence intensities were recorded with a FluoroMax4 (Horiba Scientific, Edison, N.J., USA) at λem=572 nm and excitation source at λex=552 nm at 25° C. Quencher-titration was carried out by successive additions of small specimen aliquots containing 1 M KI into buffer A supplemented with 10 mM Na2S2O3. Fluorescence intensities (F) were corrected for sample dilution and normalized to the initial intensity (F0) of a sample. All data was analyzed by linear-(Stern-Volmer plot) or nonlinear regression in GraphPad Prism 6.0 (GraphPad Software). The degree of iodide (I^−) accessibility was obtained from the following Stern-Volmer equation: F0/F=1+Ksv×[Q], where F0/F is normalized fluorescence quenching, Ksv is a Stern-Volmer constant, and [Q] is quencher concentration. When means are calculated as a log, the means are shown as pIC50 and the [s.e.m. interval] from pIC50±s.e.m.
Values of radioligand binding constants were calculated through SPA saturation binding experiments. Values of iodide quenching-response constants and ΔKSV were calculated from a site-directed fluorescence quenching spectroscopy. The affinity (Kd) is shown as means±s.e.m and ΔKSV is shown as means [s.e.m. interval]. All data is shown as means of three to four independent experiments.

Two compounds from US10781229B2, “Tris- or neopentyl glycol-based amphiphiles and uses thereof” (Industry-University Cooperation Foundation Hanyang …, priority 2015, dated 2020) can be followed below.

T1 sequence (P30878 whole entry): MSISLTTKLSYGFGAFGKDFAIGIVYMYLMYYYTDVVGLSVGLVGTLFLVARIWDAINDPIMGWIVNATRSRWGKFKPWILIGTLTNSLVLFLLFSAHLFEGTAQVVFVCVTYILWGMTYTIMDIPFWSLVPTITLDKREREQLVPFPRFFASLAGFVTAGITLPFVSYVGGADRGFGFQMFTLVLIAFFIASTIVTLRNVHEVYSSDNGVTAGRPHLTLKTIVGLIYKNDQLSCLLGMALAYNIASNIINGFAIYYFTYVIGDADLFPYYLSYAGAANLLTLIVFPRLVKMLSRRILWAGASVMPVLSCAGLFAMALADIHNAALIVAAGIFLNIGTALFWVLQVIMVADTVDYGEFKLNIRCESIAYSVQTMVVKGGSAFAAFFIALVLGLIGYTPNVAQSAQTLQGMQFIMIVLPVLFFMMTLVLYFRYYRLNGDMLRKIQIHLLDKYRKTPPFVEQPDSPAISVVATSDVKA

For `CCCCCCCCCCCCOC1OC(CO)C(OC2OC(CO)C(O)C(O)C2O)C(O)C1O` [DDM, n-dodecyl-β-D-maltopyranoside, reference compound], the “Functional state of solubilized MelBSt (melibiose binding, FRET)” value at MelBSt was “enable production of functional MelBSt proteins”. Also, at LeuT E192C^TMR, the “Δ KSV” value was found to be 1.1 M⁻¹ and the “Ksv when leucine is absent” value is listed as “up to 1.6”.

As to `CCCCCCCCCCCC(CCCCCCCCCCC)COCC(CO[C@@H]1OC(CO)[C@@H](O)C(O)C1O)(CO[C@@H]1OC(CO)[C@@H](O)C(O)C1O)CO[C@@H]1OC(CO)[C@@H](O)C(O)C1O` (stereo partly shown) [NDT-C11], the “Functional state of solubilized MelBSt (melibiose binding, FRET)” value on MelBSt is listed as “enable production of functional MelBSt proteins”. The “Structural fluidity of the LeuT protein” value on LeuT E192C^TMR (conclusion from ΔKsv) is listed as “satisfactorily maintains the structural fluidity”. On LeuT E192C^TMR, the “Δ KSV” value worked out at 0.9 M⁻¹ and the “Ksv when leucine is absent” value is given as “up to 2.5”.
